The numbers were not newly measured in paper PMC12426930, “Antioxidant, Hypotensive, and Antidiabetic Breakthroughs: Bromelain Hydrolysis Unlocks Quinoa’s Peptide Potential - In Silico and In Vitro Approach” (Journal of Agricultural and Food Chemistry, 2025), which cites them from elsewhere.

The data set deals with DPP-IV. The arrangement: method as in Vilcacundo et al. [40]. As to conditions: 250 μM; ref Vilcacundo et al. [40]; cited from earlier work.

Take “IQAQGGLT [DPP-IV quinoa-derived peptide reported by Vilcacundo et al]”: the DPP-IV inhibition was 17.05%.
